Assay results as given in the NIST ThermoML archive (doi:10.1016/j.jct.2012.12.010).
Numbers after ± are expanded uncertainties.

Experiment: mn = molality of the nth substance listed, in mol/kg
Conditions: 101 kPa, Liquid; for speed of sound: Linear variable-path acoustic interferometer; for mass density: Pycnometric method

## CC(C)[C@H](N)C(=O)O [L-valine] + O
275.15 K, m1 = 0.034
  speed of sound: 1416.5 ± 2.8 m/s
  mass density: 1000.99 ± 0.48 kg/m3
275.15 K, m1 = 0.0672
  speed of sound: 1420.9 ± 2.8 m/s
  mass density: 1001.86 ± 0.48 kg/m3
275.15 K, m1 = 0.1028
  speed of sound: 1425.7 ± 2.7 m/s
  mass density: 1002.93 ± 0.48 kg/m3
275.15 K, m1 = 0.1349
  speed of sound: 1429.9 ± 2.7 m/s
  mass density: 1003.79 ± 0.48 kg/m3
275.15 K, m1 = 0.1675
  speed of sound: 1434.3 ± 2.7 m/s
  mass density: 1004.61 ± 0.48 kg/m3
275.15 K, m1 = 0.2021
  speed of sound: 1438.9 ± 2.7 m/s
  mass density: 1005.54 ± 0.48 kg/m3
275.15 K, m1 = 0.233
  speed of sound: 1443 ± 2.7 m/s
  mass density: 1006.4 ± 0.48 kg/m3
275.15 K, m1 = 0.2667
  speed of sound: 1447.5 ± 2.7 m/s
  mass density: 1007.34 ± 0.48 kg/m3
275.15 K, m1 = 0.3009
  speed of sound: 1452 ± 2.7 m/s
  mass density: 1008.25 ± 0.48 kg/m3
275.15 K, m1 = 0.3669
  speed of sound: 1460.8 ± 2.7 m/s
  mass density: 1009.99 ± 0.48 kg/m3
275.15 K, m1 = 0.4066
  speed of sound: 1466.1 ± 2.7 m/s
  mass density: 1011.08 ± 0.48 kg/m3
279.15 K, m1 = 0.0341
  speed of sound: 1434.1 ± 2.8 m/s
  mass density: 1000.9 ± 0.47 kg/m3
279.15 K, m1 = 0.0671
  speed of sound: 1438.1 ± 2.8 m/s
  mass density: 1001.87 ± 0.47 kg/m3
279.15 K, m1 = 0.1009
  speed of sound: 1442.1 ± 2.7 m/s
  mass density: 1002.75 ± 0.47 kg/m3
279.15 K, m1 = 0.1418
  speed of sound: 1447 ± 2.7 m/s
  mass density: 1003.8 ± 0.47 kg/m3
279.15 K, m1 = 0.1696
  speed of sound: 1450.4 ± 2.7 m/s
  mass density: 1004.51 ± 0.47 kg/m3
279.15 K, m1 = 0.2021
  speed of sound: 1454.3 ± 2.7 m/s
  mass density: 1005.51 ± 0.47 kg/m3
279.15 K, m1 = 0.2382
  speed of sound: 1458.6 ± 2.7 m/s
  mass density: 1006.36 ± 0.47 kg/m3
279.15 K, m1 = 0.2782
  speed of sound: 1463.4 ± 2.7 m/s
  mass density: 1007.44 ± 0.47 kg/m3
279.15 K, m1 = 0.2983
  speed of sound: 1465.8 ± 2.7 m/s
  mass density: 1007.95 ± 0.47 kg/m3
279.15 K, m1 = 0.3342
  speed of sound: 1470.2 ± 2.7 m/s
  mass density: 1008.96 ± 0.47 kg/m3
279.15 K, m1 = 0.3652
  speed of sound: 1473.9 ± 2.7 m/s
  mass density: 1009.77 ± 0.47 kg/m3
279.15 K, m1 = 0.3951
  speed of sound: 1477.5 ± 2.7 m/s
  mass density: 1010.57 ± 0.47 kg/m3
283.15 K, m1 = 0.0341
  speed of sound: 1450.7 ± 2.8 m/s
  mass density: 1000.61 ± 0.46 kg/m3
283.15 K, m1 = 0.0669
  speed of sound: 1454.2 ± 2.8 m/s
  mass density: 1001.41 ± 0.46 kg/m3
283.15 K, m1 = 0.1015
  speed of sound: 1458 ± 2.7 m/s
  mass density: 1002.33 ± 0.46 kg/m3
283.15 K, m1 = 0.1349
  speed of sound: 1461.6 ± 2.7 m/s
  mass density: 1003.08 ± 0.46 kg/m3
283.15 K, m1 = 0.1666
  speed of sound: 1465 ± 2.7 m/s
  mass density: 1004.17 ± 0.46 kg/m3
283.15 K, m1 = 0.2025
  speed of sound: 1468.9 ± 2.7 m/s
  mass density: 1005.15 ± 0.46 kg/m3
283.15 K, m1 = 0.2321
  speed of sound: 1472.1 ± 2.7 m/s
  mass density: 1006.04 ± 0.46 kg/m3
283.15 K, m1 = 0.2787
  speed of sound: 1477.1 ± 2.7 m/s
  mass density: 1007.06 ± 0.46 kg/m3
283.15 K, m1 = 0.297
  speed of sound: 1479.1 ± 2.7 m/s
  mass density: 1007.53 ± 0.46 kg/m3
283.15 K, m1 = 0.3314
  speed of sound: 1482.8 ± 2.7 m/s
  mass density: 1008.49 ± 0.46 kg/m3
283.15 K, m1 = 0.3663
  speed of sound: 1486.6 ± 2.7 m/s
  mass density: 1009.41 ± 0.46 kg/m3
283.15 K, m1 = 0.3972
  speed of sound: 1489.9 ± 2.7 m/s
  mass density: 1010.11 ± 0.47 kg/m3

## C[C@@H](O)[C@H](N)C(=O)O [L-threonine] + O
275.15 K, m1 = 0.0337
  speed of sound: 1415.3 ± 2.8 m/s
  mass density: 1001.56 ± 0.48 kg/m3
275.15 K, m1 = 0.0672
  speed of sound: 1418.7 ± 2.8 m/s
  mass density: 1003.12 ± 0.48 kg/m3
275.15 K, m1 = 0.1009
  speed of sound: 1422 ± 2.8 m/s
  mass density: 1004.6 ± 0.48 kg/m3
275.15 K, m1 = 0.1338
  speed of sound: 1425.3 ± 2.8 m/s
  mass density: 1006.09 ± 0.48 kg/m3
275.15 K, m1 = 0.1674
  speed of sound: 1428.6 ± 2.8 m/s
  mass density: 1007.23 ± 0.48 kg/m3
275.15 K, m1 = 0.2002
  speed of sound: 1431.8 ± 2.7 m/s
  mass density: 1008.62 ± 0.48 kg/m3
275.15 K, m1 = 0.2334
  speed of sound: 1435.1 ± 2.7 m/s
  mass density: 1010.1 ± 0.48 kg/m3
275.15 K, m1 = 0.2689
  speed of sound: 1438.6 ± 2.7 m/s
  mass density: 1011.67 ± 0.48 kg/m3
275.15 K, m1 = 0.3009
  speed of sound: 1441.8 ± 2.7 m/s
  mass density: 1012.89 ± 0.48 kg/m3
275.15 K, m1 = 0.3345
  speed of sound: 1445.1 ± 2.7 m/s
  mass density: 1014.39 ± 0.48 kg/m3
275.15 K, m1 = 0.3679
  speed of sound: 1448.4 ± 2.7 m/s
  mass density: 1015.8 ± 0.48 kg/m3
275.15 K, m1 = 0.4054
  speed of sound: 1452.2 ± 2.7 m/s
  mass density: 1017.24 ± 0.48 kg/m3
279.15 K, m1 = 0.0337
  speed of sound: 1433.1 ± 2.8 m/s
  mass density: 1001.55 ± 0.47 kg/m3
279.15 K, m1 = 0.0671
  speed of sound: 1436.2 ± 2.8 m/s
  mass density: 1002.96 ± 0.47 kg/m3
279.15 K, m1 = 0.101
  speed of sound: 1439.3 ± 2.8 m/s
  mass density: 1004.52 ± 0.47 kg/m3
279.15 K, m1 = 0.1342
  speed of sound: 1442.3 ± 2.8 m/s
  mass density: 1005.69 ± 0.47 kg/m3
279.15 K, m1 = 0.1665
  speed of sound: 1445.3 ± 2.8 m/s
  mass density: 1006.97 ± 0.47 kg/m3
279.15 K, m1 = 0.2002
  speed of sound: 1448.4 ± 2.8 m/s
  mass density: 1008.49 ± 0.47 kg/m3
279.15 K, m1 = 0.235
  speed of sound: 1451.6 ± 2.8 m/s
  mass density: 1009.98 ± 0.47 kg/m3
279.15 K, m1 = 0.2673
  speed of sound: 1454.5 ± 2.8 m/s
  mass density: 1011.46 ± 0.47 kg/m3
279.15 K, m1 = 0.2996
  speed of sound: 1457.5 ± 2.8 m/s
  mass density: 1012.62 ± 0.47 kg/m3
279.15 K, m1 = 0.3683
  speed of sound: 1463.8 ± 2.7 m/s
  mass density: 1015.5 ± 0.48 kg/m3
279.15 K, m1 = 0.4005
  speed of sound: 1466.8 ± 2.7 m/s
  mass density: 1016.91 ± 0.48 kg/m3
283.15 K, m1 = 0.0224
  speed of sound: 1449 ± 2.8 m/s
  mass density: 1000.69 ± 0.46 kg/m3
283.15 K, m1 = 0.0677
  speed of sound: 1453.1 ± 2.8 m/s
  mass density: 1002.52 ± 0.46 kg/m3
283.15 K, m1 = 0.101
  speed of sound: 1456.1 ± 2.8 m/s
  mass density: 1004.25 ± 0.46 kg/m3
283.15 K, m1 = 0.1362
  speed of sound: 1459.2 ± 2.8 m/s
  mass density: 1005.58 ± 0.46 kg/m3
283.15 K, m1 = 0.1665
  speed of sound: 1461.9 ± 2.8 m/s
  mass density: 1006.81 ± 0.46 kg/m3
283.15 K, m1 = 0.2005
  speed of sound: 1465 ± 2.8 m/s
  mass density: 1008.32 ± 0.46 kg/m3
283.15 K, m1 = 0.2345
  speed of sound: 1468.1 ± 2.8 m/s
  mass density: 1009.56 ± 0.46 kg/m3
283.15 K, m1 = 0.2725
  speed of sound: 1471.5 ± 2.8 m/s
  mass density: 1011.21 ± 0.47 kg/m3
283.15 K, m1 = 0.2996
  speed of sound: 1473.9 ± 2.8 m/s
  mass density: 1012.33 ± 0.47 kg/m3
283.15 K, m1 = 0.3351
  speed of sound: 1477.1 ± 2.8 m/s
  mass density: 1013.76 ± 0.47 kg/m3
283.15 K, m1 = 0.3677
  speed of sound: 1480 ± 2.8 m/s
  mass density: 1015.01 ± 0.47 kg/m3
283.15 K, m1 = 0.3928
  speed of sound: 1482.3 ± 2.8 m/s
  mass density: 1016.16 ± 0.47 kg/m3
